Values quoted from earlier work in patent US20250134887A1, “METHODS OF TREATING PROSTATE CANCER” (AstraZeneca AB, priority 2022, published 2025).

Tested on: patients with mCRPC harboring BRCA1, BRCA2 and ATM mutations
Details: disease had progressed on NHA; vs. enzalutamide or abiraterone; cited from earlier work

For `O=C(c1cc(Cc2n[nH]c(=O)c3ccccc23)ccc1F)N1CCN(C(=O)C2CC2)CC1` [olaparib, 4-[(3-{[4-(cyclopropane-carbonyl)piperazine-1-yl]carbonyl}-4-fluorophenyl)methyl]-2H-phthalazin-1-one], the “imaging-based progression-free survival and overall survival” value is listed as “imaging-based progression-free survival and overall survival benefits”.
